The results in this text go back to US20250049787A1, “TREATMENT FOR ACUTE MYELOID LEUKEMIA OR LYMPHOMA” (UNIVERSITY HEALTH NETWORK, priority 2021, published 2025).

Where a name gives a salt, the structure may show the parent alone.

Test in all cases: Growth inhibition, Alamar Blue
Common to all, as to assay type: cell-based
On the technique in general: Resazurin is reduced to fluorescent resorufin, in cell work by metabolically active cells.

Assay [1] deals with NALM-16. As to conditions: Homo sapiens, NALM16, 72 h; NALM-16, B-ALL; 3 days. The procedure:
(§1) Cell lines were obtained from American Type Culture Collection (ATCC) and maintained according to the supplier's instructions, and from Dr. Mark Minden (Princess Margaret Cancer Centre, Toronto, Canada). Short tandem repeat (STR) profiling was used to verify authenticity of the cell lines. Peripheral blood from healthy human donors was obtained from the Hematology Malignancy Tissue Bank at the University Health Network. Peripheral blood mononuclear cells (PBMC) were prepared from the blood by density gradient centrifugation using Ficoll-Paque PLUS by manufacturer's instructions (GE Healthcare Life Sciences). […] Compound (I) tartrate was prepared as a 10 mM stock solution in 100% DMSO. The stock solution was diluted with RPMI-1640 (Invitrogen) containing 10% FBS (fetal bovine serum) such that the final concentrations ranged from 300 fM to 300 μM. Aliquots (20 μL) from each concentration were overlaid to 180 μL of pre-seeded cells to achieve final concentrations of 30 fM to 30 μM. After 3 days, cell growth in each well was assessed by Alamar Blue assay reagent (Invitrogen). Raw fluorescence (λEM=590 nm) values were adjusted by subtracting the average of the baseline readings from untreated cells assessed one day after cell seeding. Relative cell growth was calculated by comparing to DMSO-treated cells. The concentrations at which cell growth was inhibited by 50% (growth inhibition IC50) were calculated using GraphPad PRISM software (GraphPad Software Inc.).

In assay [2] the test system is REH. The settings on record: Homo sapiens, 72 h, B-ALL, 3 days. Here is the method:
as §1

Assay [3] concerns SU-DHL-8. As to conditions: Homo sapiens, 72 h; SU-DHL-8, NHL, GCB-DLBCL; 3 days. The procedure: as §1
Assay [4] relates to OCI-AML3. As to conditions: Homo sapiens, OCI-AML-3, 72 h; OCI-AML3, AML M4; 3 days. The procedure:
as §1

The test system of assay [5] is OCI-LY10. The settings on record: Homo sapiens, 72 h; OCI-LY10, NHL, ABC-DLBCL; 3 days. Here is the method: as §1
Assay [6] concerns OCI-LY3. The settings on record: Homo sapiens, 72 h; OCI-LY3, NHL, ABC-DLBCL; 3 days. Here is the method:
as §1

The test system of assay [7] is HL-60. As to conditions: Homo sapiens, 72 h; HL-60, AML M2; FLT3 wild-type, protein expressed; 3 days. The procedure:
as §1

Assay [8] concerns MOLM-14. As to conditions: Homo sapiens, 72 h; MOLM-14, AML M5; FLT3 ITD + wild-type, protein expressed; 3 days. Here is the method: as §1
The subject of assay [9] is PBMC. As to conditions: 72 h, NORMAL (healthy human donors), 3 days. The procedure: as §1
The test system of assay [10] is U937. As to conditions: Homo sapiens, U-937, 72 h; U937, AML M5; 3 days. The procedure:
as §1

The test system of assay [11] is RS4; 11. As to conditions: Homo sapiens, 72 h, 11, B-ALL, 3 days. The procedure:
as §1

Assay [12] has as its system RAJI. The settings on record: Homo sapiens, 72 h, NHL, Burkitt's lymphoma, 3 days. The procedure:
as §1

The test system of assay [13] is NALM-6. The settings on record: Homo sapiens, 72 h; NALM-6, B-ALL; 3 days. Here is the method:
as §1

The subject of assay [14] is OCI-AML5. The settings on record: Homo sapiens, OCI-AML-5, 72 h; OCI-AML5, AML M4; 3 days. The procedure: as §1
Assay [15] deals with NB4. The settings on record: Homo sapiens, NB-4, 72 h; NB4, AML M3; 3 days. Here is the method: as §1
Assay [16] has as its system DAUDI. The settings on record: Homo sapiens, 72 h, NHL, Burkitt's lymphoma, 3 days. The procedure: as §1
Assay [17] has as its system OCI-LY8. As to conditions: Homo sapiens, 72 h; OCI-LY8, NHL, GCB-DLBCL; 3 days. Here is the method:
as §1

The test system of assay [18] is OCI-AML2. As to conditions: Homo sapiens, 72 h; OCI-AML2, AML M4; 3 days. The procedure: as §1
The subject of assay [19] is OCI-AML4. The settings on record: Homo sapiens, 72 h; OCI-AML4, AML M4; 3 days. Here is the method: as §1
Assay [20] relates to MV-4-11. As to conditions: Homo sapiens, MV4-11, 72 h; MV-4-11, AML M5; FLT3 ITD, protein expressed; 3 days. Here is the method: as §1
In assay [21] the test system is MOLT-4. The settings on record: Homo sapiens, 72 h; MOLT-4, T-ALL; 3 days. The procedure: as §1
Assay [22] deals with OCI-LY18. The settings on record: Homo sapiens, 72 h; OCI-LY18, NHL, GCB-DLBCL; 3 days. Here is the method:
as §1

Assay [23] has as its system JURKAT. As to conditions: Homo sapiens, 72 h, T-ALL, 3 days. The procedure:
as §1

With `CN1CCN(c2ccc3nc(-c4c(N)c5ccsc5[nH]c4=O)[nH]c3c2)CC1` [Compound (I) tartrate, 4-amino-5-(6-(4-methylpiperazin-1-yl)-1H-benzo[d]imidazol-2-yl)thieno[2,3-b]pyridin-6(7H)-one], the IC50 in [1] was 1100 nM; in [2], 1400 nM; in [3] it was 2600 nM; in assay [4], at least 30000 nM; in assay [5], 570 nM; in [6], 240 nM. In addition, the IC50 in [7] was found to be 1200 nM; in assay [8], 4.7 nM; in assay [9], 14000 nM; in [10], 770 nM; in assay [11], 1700 nM; in assay [12], 6600 nM. Moreover, the IC50 was 10000 nM in assay [13]; 270 nM in [14]; 940 nM in assay [15]; 1300 nM in assay [16]; 3600 nM in assay [17]; 1500 nM in assay [18]. The IC50 in [19] is 160 nM; in assay [20], 3.7 nM; in assay [21], 1600 nM; in [22] it was 90 nM; in assay [23] it was 3400 nM.

Broadly, the IC50 is the midpoint of a concentration-inhibition curve.
